{"source": "patent US20090191571A1", "about": "(priority 2005, published 2009)", "target": "PrP^Sc (Mus musculus, UniProt P04925)", "sequence (P04925 23-230 limits assumed)": "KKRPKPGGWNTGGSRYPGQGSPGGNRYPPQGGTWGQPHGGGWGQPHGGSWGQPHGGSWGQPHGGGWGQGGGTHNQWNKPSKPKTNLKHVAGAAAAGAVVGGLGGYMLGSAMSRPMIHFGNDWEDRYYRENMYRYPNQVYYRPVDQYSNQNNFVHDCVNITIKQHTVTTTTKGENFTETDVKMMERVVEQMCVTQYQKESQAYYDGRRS", "data": [{"substance": "(GGG)KKRPKPGG [SEQ ID NO:68]", "values": [{"measurement": "binding to PrP^Sc, Western blotting (FIG. 4, lane 5)", "result": "strong binding"}]}]}
